How the values were obtained:
Assay in all cases: relative viability (nuclei count vs DMSO), 5 days (fraction); higher = more cells survive
NCI-H838 = tested on: NCI-H838
How it was run: (§1)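 The day after seeding in 1536-well plates, lung cancer cell lines were treated by pin tool with a single drug, or with a fixed anchor-drug dose together with five library-drug doses (not always all listed) in √10 steps. After 5 days, a combined fix-and-stain solution (final 0.05% Triton X-100, 1% formaldehyde, 1 ug/ml Hoechst) was added. Nuclei counted on 4× images gave relative viability as treated counts over vehicle counts, reported as the median of duplicate plates.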

NCI-H23 = tested on: NCI-H23
How it was run: as §1

PC-3 [JPC-3] = tested on: PC-3 [JPC-3]
How it was run: as §1

NCI-H441 = tested on: NCI-H441
How it was run: as §1

NCI-H1666 = tested on: NCI-H1666
How it was run: as §1

NCI-H647 = tested on: NCI-H647
How it was run: as §1

NCI-H358 = tested on: NCI-H358
How it was run: as §1

NCI-H322M = tested on: NCI-H322M
How it was run: as §1

NCI-H727 = tested on: NCI-H727
How it was run: as §1

SK-LU-1 = tested on: SK-LU-1
How it was run: as §1

NCI-H596 = tested on: NCI-H596
How it was run: as §1

NCI-H661 = tested on: NCI-H661
How it was run: as §1

NCI-H520 = tested on: NCI-H520
How it was run: as §1

NCI-H1437 = tested on: NCI-H1437
How it was run: as §1

EKVX = tested on: EKVX
How it was run: as §1

NCI-H1975 = tested on: NCI-H1975
How it was run: as §1

NCI-H1792 = tested on: NCI-H1792
How it was run: as §1

LCLC-97TM1 = tested on: LCLC-97TM1
How it was run: as §1

NCI-H1915 = tested on: NCI-H1915
How it was run: as §1

NCI-H460 = tested on: NCI-H460
How it was run: as §1

## Cc1csc(=NC2CCCCC2)n1/N=C/c1ccc(O)c(O)c1O [MIM1] + C[C@]1(O)C[C@@H](c2nc(-c3ccc4ccc(-c5ccccc5)nc4c3)c3c(N)nccn32)C1 [Linsitinib] (partner 1 µM)
NCI-H838; first compound 0.2 µM
  relative viability: 0.887
NCI-H838; first compound 0.6325 µM
  relative viability: 1.1
NCI-H838; first compound 2 µM
  relative viability: 0.851
NCI-H838; first compound 6.325 µM
  relative viability: 0.765
NCI-H838; first compound 20 µM
  relative viability: 0.464
NCI-H23; first compound 0.2 µM
  relative viability: 0.553
NCI-H23; first compound 2 µM
  relative viability: 0.488
NCI-H23; first compound 6.325 µM
  relative viability: 0.58
NCI-H23; first compound 20 µM
  relative viability: 0.215
PC-3 [JPC-3]; first compound 0.2 µM
  relative viability: 0.946
PC-3 [JPC-3]; first compound 0.6325 µM
  relative viability: 0.952
PC-3 [JPC-3]; first compound 2 µM
  relative viability: 1
PC-3 [JPC-3]; first compound 6.325 µM
  relative viability: 0.805
PC-3 [JPC-3]; first compound 20 µM
  relative viability: 0.845
NCI-H441; first compound 0.2 µM
  relative viability: 0.612
NCI-H441; first compound 0.6325 µM
  relative viability: 0.528
NCI-H441; first compound 2 µM
  relative viability: 0.543
NCI-H441; first compound 6.325 µM
  relative viability: 0.709
NCI-H441; first compound 20 µM
  relative viability: 0.145
NCI-H1666; first compound 0.2 µM
  relative viability: 0.791
NCI-H1666; first compound 0.6325 µM
  relative viability: 0.753
NCI-H1666; first compound 2 µM
  relative viability: 0.732
NCI-H1666; first compound 6.325 µM
  relative viability: 0.606
NCI-H1666; first compound 20 µM
  relative viability: 0.526
NCI-H647; first compound 0.2 µM
  relative viability: 1.28
NCI-H647; first compound 0.6325 µM
  relative viability: 1.07
NCI-H647; first compound 2 µM
  relative viability: 1.32
NCI-H647; first compound 6.325 µM
  relative viability: 0.807
NCI-H647; first compound 20 µM
  relative viability: 0.868
NCI-H358; first compound 0.2 µM
  relative viability: 0.703
NCI-H358; first compound 0.6325 µM
  relative viability: 0.651
NCI-H358; first compound 2 µM
  relative viability: 0.694
NCI-H358; first compound 6.325 µM
  relative viability: 0.324
NCI-H358; first compound 20 µM
  relative viability: 0.341
NCI-H322M; first compound 0.2 µM
  relative viability: 1.01
NCI-H322M; first compound 0.6325 µM
  relative viability: 0.981
NCI-H322M; first compound 2 µM
  relative viability: 1.05
NCI-H322M; first compound 6.325 µM
  relative viability: 0.905
NCI-H322M; first compound 20 µM
  relative viability: 0.912
NCI-H727; first compound 0.2 µM
  relative viability: 0.311
NCI-H727; first compound 0.6325 µM
  relative viability: 0.284
NCI-H727; first compound 2 µM
  relative viability: 0.276
NCI-H727; first compound 6.325 µM
  relative viability: 0.278
NCI-H727; first compound 20 µM
  relative viability: 0.266
SK-LU-1; first compound 0.2 µM
  relative viability: 1.12
SK-LU-1; first compound 0.6325 µM
  relative viability: 1.26
SK-LU-1; first compound 2 µM
  relative viability: 1.29
SK-LU-1; first compound 6.325 µM
  relative viability: 1.03
SK-LU-1; first compound 20 µM
  relative viability: 0.996
NCI-H596; first compound 0.2 µM
  relative viability: 0.989
NCI-H596; first compound 0.6325 µM
  relative viability: 0.989
NCI-H596; first compound 2 µM
  relative viability: 0.991
NCI-H596; first compound 6.325 µM
  relative viability: 0.857
NCI-H596; first compound 20 µM
  relative viability: 0.871
NCI-H661; first compound 0.2 µM
  relative viability: 0.575
NCI-H661; first compound 0.6325 µM
  relative viability: 0.737
NCI-H661; first compound 2 µM
  relative viability: 0.547
NCI-H661; first compound 6.325 µM
  relative viability: 0.449
NCI-H661; first compound 20 µM
  relative viability: 0.255
NCI-H520; first compound 0.2 µM
  relative viability: 0.983
NCI-H520; first compound 0.6325 µM
  relative viability: 1.1
NCI-H520; first compound 2 µM
  relative viability: 0.921
NCI-H520; first compound 6.325 µM
  relative viability: 0.64
NCI-H520; first compound 20 µM
  relative viability: 0.5
NCI-H1437; first compound 0.2 µM
  relative viability: 0.967
NCI-H1437; first compound 0.6325 µM
  relative viability: 0.985
NCI-H1437; first compound 2 µM
  relative viability: 1.05
NCI-H1437; first compound 6.325 µM
  relative viability: 0.507
NCI-H1437; first compound 20 µM
  relative viability: 0.151
EKVX; first compound 0.2 µM
  relative viability: 1.03
EKVX; first compound 0.6325 µM
  relative viability: 0.867
EKVX; first compound 2 µM
  relative viability: 0.958
EKVX; first compound 6.325 µM
  relative viability: 0.631
EKVX; first compound 20 µM
  relative viability: 0.667
NCI-H1975; first compound 0.2 µM
  relative viability: 0.869
NCI-H1975; first compound 0.6325 µM
  relative viability: 1.12
NCI-H1975; first compound 2 µM
  relative viability: 0.796
NCI-H1975; first compound 6.325 µM
  relative viability: 0.525
NCI-H1975; first compound 20 µM
  relative viability: 0.546
NCI-H1792; first compound 0.2 µM
  relative viability: 0.551
NCI-H1792; first compound 0.6325 µM
  relative viability: 0.438
NCI-H1792; first compound 2 µM
  relative viability: 0.481
NCI-H1792; first compound 6.325 µM
  relative viability: 0.383
NCI-H1792; first compound 20 µM
  relative viability: 0.503
LCLC-97TM1; first compound 0.2 µM
  relative viability: 0.171
LCLC-97TM1; first compound 0.6325 µM
  relative viability: 0.226
LCLC-97TM1; first compound 2 µM
  relative viability: 0.166
LCLC-97TM1; first compound 6.325 µM
  relative viability: 0.207
LCLC-97TM1; first compound 20 µM
  relative viability: 0.214
NCI-H1915; first compound 0.2 µM
  relative viability: 1.09
NCI-H1915; first compound 0.6325 µM
  relative viability: 1.03
NCI-H1915; first compound 2 µM
  relative viability: 1.08
NCI-H1915; first compound 6.325 µM
  relative viability: 0.978
NCI-H1915; first compound 20 µM
  relative viability: 0.872
NCI-H460; first compound 0.2 µM
  relative viability: 0.791
NCI-H460; first compound 0.6325 µM
  relative viability: 0.783
NCI-H460; first compound 2 µM
  relative viability: 0.582
NCI-H460; first compound 6.325 µM
  relative viability: 0.287
NCI-H460; first compound 20 µM
  relative viability: 0.022
